Source: patent US6677431B2, “Design, preparation, and properties of antibacterial β-peptides” (The Trustees of the University of Pennsylvania, priority 1999, dated 2004)
Where two headings read alike, the source gives them in different places.

Columns and labels:
osmY-lux fusion = assay: Stress-induced response assay, induction of osmY-lux fusion; type: cell-based; conditions: for induction of osmY-lux: Group II peptides; for osmY gene fusion response: Table 4, stress sensed osmotic shock
Experimental: Stress-induced response and growth inhibition assays were carried out on samples of four of the β-peptide and compared to known polycationic peptides.
Polymyxin B was tested both rich, LB, medium and defined, M9, medium. The other natural peptides were tested in LB medium.
The β-peptides were tested in M9 medium. * In LB medium (data from Oh et al. Biochem. Biophys. Acta. 2000,1463: 43-54)
However, similar to the magainins, no induction of the micF-lux fusion was observed. Also, the minimum inhibitory concentrations (MIC's) were determined to be higher than those reported in the published manuscript.
Samples of these β-peptides 1 and 2 were evaluated in the stress-induced response assays.
(§1) The biolumenescence data result from test carried out according to U.S. Pat. No. 5,683,868, Highly Sensitive Method For Detecting Environmental Insults, issued Nov. 4, 1997 to LaRossa et al., the entire contents of the disclosure of are hereby incorporated by reference, The tests described in this patent permit antibacterial properties of peptides or any other materials to be assessed. […] Along these lines, FIG. 5 illustrates a relationship between relative light units and minutes of exposure of bacteria to the various materials in the legend. P×B represents polymyxin, a known antibacterial material. In the graph, a decrease in RULs corresponds to a decrease in bacteria. […]

recA-lux bioluminescence = assay: Inhibition of recA-lux bioluminescence in M9 media; type: cell-based; conditions: inhibition of recA-lux bioluminescence in M9 media (Van Dyk lab)
Experimental: (§2) ∇in M9 medium (data from Hamuro et al., ref. 5) # In M9 medium.+Hemolysis experiments were performed by incubating a 0.25% suspension of human RBc's in 10 mM Tris buffer containing […] at pH 7.0 with varying amounts of peptide. The hemolytic dose required to lyse 50% of the RBC's is reported as the HD50.
as §1

K91 E. coli = type: cell-based
Experimental: (§3) The biological activities of these peptides were measured using human erythrocytes and E. coli as models for mammalian and bacterial cells, respectively. Hemolysis was monitored in 10 mM Tris, 150 mM NaCl, pH 7.0, while the bacterial assay was conducted in minimal media M9 (Table 1); both of these solutions are sufficiently transparent to allow CD and ultracentrifugation measurements (supplementary material). Under the assay conditions, the peptides gave CD spectra similar to those in Tris buffer, with the exception of H-(β^3-HLeu-β^3-HLys-β^3-HLeu)n-OH, n=5 and 6.
Antibacterial assay was performed by incubation of K 91 E. coli and peptide of different concentrations in minimal media, at pH 7.4. The peptide solution (50 μL) and K 91 E. coli culture (20 μL, grown in minimal media for 24 hr-36 hr) were mixed with 1 mL minimal media. […] The peptide dose required for 50% suppress of bacterial growth was obtained from the smooth fitted OD600 vs. log[peptide] curve.
(§4) The activity and selectivity of peptide 1 and peptide 2 were examined by antibacterial assay and hemolysis experiments. E. Coli and human erythrotytes (RBC) were used as models for bacterial cell and mammalian cell, respectively. The peptide concentration required for 50% bacterial growth suppression (IC50), and peptide concentration required for 50% RBC lysis (HD50) are listed in Table 3. […] The antibacterial activities of peptide 1 and peptide 2 are about the same except peptide 2 has slightly lower IC50. Similar trend has been observed in the previous study, that longer peptide tends to have higher activity. However, the difference in IC50 is much smaller for this series of peptide than the previously studied ones. Antibacterial peptide with good selectivity is usually represented by its low hemolysis ability. […] The HD50 is 670 μM for peptide 1 and 240 μM for peptide 2, which gives a selectivity of 111 for peptide 1 and 60 for peptide 2.

[1] = system: human erythrocytes (RBC's); assay: Hemolysis assay, 50% lysis of RBC's; type: cell-based
Experimental: as §3, §2
Hemolysis experiments were carried out by incubating 0.25% suspension of human erythrocytes (RBC's) with peptides of different concentrations in 150 mM sodium choloride, 10 mM Tris buffer, pH 7.0. The sample was prepared by combining 400 μL of the RBC suspension and […] of the peptide solution. After incubated the sample at 37— C. for 1 hour, the sample was centrifuged at 14,000 rpm for 5 min, and the OD414 of the supernatant was measured. Mellitin (50 μM) was used to get 100% hemolysis. The hemolytic IC50 was obtained by plotting hemolysis percentage vis. peptide concentration, and the concentration required for 50% hemolysis was determined from the smooth curve-fitted graph.
as §4

[2] = Peptide binding to phospholipid bilayers by CD, SOPC vesicles; conditions: for helix formation on phosphocholin vesicles (POPC and SOPC): CD, model of mammalian cell membrane
[3] = Peptide-induced leakage of liposomal contents (calcein release)
Experimental: The leakage of liposome contents to the external media was monitored by the release of calcein encapsulated in vesicles. The vesicle was prepared by reverse-phase evaporation in 10 mM sodium phosphate buffer, pH 7, followed by single extrusion through one 0.2 μm pore size polycarbonate filter. The non trapped calcein was removed by eluting through a size exclusion Sephadex G-25 column, with 90 mM sodium chloride, 10 mM sodium phosphate, pH 7. The leaking kinetics was monitored by follow the increase of calcein fluorescence intensity at 520 nm (excitation at 490 nm) due to release of self-quenching. The experiment was carried out on a Hitachi F-2500 Fluoresence spectrophotometer, with a slit width of […]. The initial rate was calculated from the linear part of the %leakage vs. time curve.
The mechanism of how the antibacterial peptides work is still on debate. However, it is generally believed they kill the cell by disturbing cell membranes. The experiment of peptide-induced leakage of liposomal contents is a direct way to monitor this process. Large unilammilar vesicles (LUV) of SOPS/SOPC (1:9) were used in the binding study. The leakage of encapsulated calcein was detected by its fluorescence at 515 nm. The fraction of bound lipid at different peptide concentration was calculated and overlaid in FIG. 4 as well. The lysis abilities of the two peptides are similar at low peptide concentration, and become quite different with increasing amount of peptide. […] With increase of peptide concentration, the leakage percentage increases quickly. For peptide 2, the leakage percentage jumps to 100% within the range between 0.05 μM and 0.14 μM where the corresponding fractions of lipid bound are about 10% 40%, respectively. […] The percentage of leakage increases to about 80% when the peptide concentration reaches 0.5 μM. The lysis ability stays at a plateau until the peptide concentration is pushed up to 2 μM, when about 60% of lipid molecules are bound to peptide molecules. […] The difference between the two peptides is even more obvious when looking at the leakage rate right after the addition of peptide to the vesicle solution, as shown in FIG. 3. The initial leakage rate for peptide 2 increases sharply when the peptide concentration increases from 0.14 μM to 0.19 μM. […] For peptide 1, the leakage initial rate increases in a continuous fashion, and 100% leakage is not complete until 300 s with 5.18 μM peptide.

[4] = K91 E. coli, minimal media, pH 7.4 (DeGrado lab), read-out: IC50 *

CC(C)[C@@H](CC(N)=O)NC(=O)C[C@H](CCCCN)NC(=O)C[C@H](C)NC(=O)C[C@@H](NC(=O)C[C@H](CCCCN)NC(=O)C[C@H](C)NC(=O)C[C@@H](NC(=O)C[C@H](CCCCN)NC(=O)C[C@H](C)NC(=O)C[C@@H](NC(=O)C[C@H](CCCCN)NC(=O)C[C@H](C)N)C(C)C)C(C)C)C(C)C [Peptide 1]
induction of osmY-lux (osmY-lux fusion): induction
osmY gene fusion response (osmY-lux fusion): yes
IC50 (recA-lux bioluminescence): 10 µM
IC50 (K91 E. coli; [4]): 6 µM
IC50 (K91 E. coli; Table 5, read-out: IC50): 6 µM
HC50 [1]: 670 µM
HD50 [1]: 670 µM
helix formation on phosphocholin vesicles (POPC and SOPC) [2]: does not show any formation of helix
time to 100% leakage ([3]; 5.18 μM peptide): 300 s
lysis of the vesicle ([3]; at 285 seconds, 5 μM peptide): Complete lysis
percentage of leakage ([3]; at 285 seconds, peptide 0.5 μM): about 80%

CC(C)[C@@H](CC(N)=O)NC(=O)C[C@H](CCCCN)NC(=O)C[C@H](C)NC(=O)C[C@@H](NC(=O)C[C@H](CCCCN)NC(=O)C[C@H](C)NC(=O)C[C@@H](NC(=O)C[C@H](CCCCN)NC(=O)C[C@H](C)NC(=O)C[C@@H](NC(=O)C[C@H](CCCCN)NC(=O)C[C@H](C)NC(=O)C[C@@H](NC(=O)C[C@H](CCCCN)NC(=O)C[C@H](C)N)C(C)C)C(C)C)C(C)C)C(C)C [Peptide 2]
induction of osmY-lux (osmY-lux fusion): induction
osmY gene fusion response (osmY-lux fusion): yes
IC50 (recA-lux bioluminescence): 3 µM
IC50 (K91 E. coli; [4]): 4 µM
IC50 (K91 E. coli; Table 5, read-out: IC50): 4 µM
HC50 [1]: 240 µM
HD50 [1]: 240 µM
helix formation on phosphocholin vesicles (POPC and SOPC) [2]: shows increase of helix content
Kd ([2]; SOPC LUV): 15 µM
percentage of leakage ([3]; at 285 seconds, peptide between 0.05 μM and 0.14 μM): 100%
time to complete lysis of the vesicle ([3]; peptide concentration higher than 0.5 μM): ≤ 20 s
